# Measurements taken from US20100113334A1, “METHODS FOR REDUCING OR PREVENTING TRANSMISSION OF NOSOCOMIAL PATHOGENS IN A HEALTH CARE FACILITY” (priority 2003, published 2010).
# Legend:
# [1] = test system: indigenous stool microflora; test: DGGE of PCR-amplified bacterial ribosomal RNA genes from stool (Example 3); type: in vivo, mice; conditions: subcutaneous clindamycin
# Candida glabrata A239 = test: Minimum-inhibitory concentration for Candida glabrata A239; type: cell-based; conditions: clinical isolate A239
# Protocol: Pathogens Studied: E. faecium C68, a previously described VanB-type clinical VRE isolate, was used for the following murine VRE experiments (Donskey et al., J. Microbial. Meth. 1807: 1-8, 2003). […] Klebsiella pneumoniae P62 is a clinical isolate that produces an SHV type extended-spectrum β-lactamase (ESBL). Candida glabrata A239 is a clinical isolate with a fluconazole minimum-inhibitory concentration of 2 μg/mL.
# [2] = test system: clinical isolate VanA strain of E. faecium (VRE); test: VRE suppression in a mouse model (Example 1); type: in vivo, mice
# Text: (§1) Mice were colonized with a clinical isolate VanA strain of E. faecium (VRE) isolated from a septicemic patient. A single inoculation of 5×10^8 cfu VRE by oral gavage (Day 0) was followed by treatment with vancomycin in the drinking water to maintain colonization. On day 22, each group received the same vancomycin-containing drinking water. […] The control group consisted of five mice, while the ramoplanin group consisted of four mice.
# Total Enterococci = test: VRE suppression in a mouse model (Example 1), total enterococci in faeces; type: in vivo, mice
# Text: as §1
# [3] = Day 22, prior to ramoplanin therapy
# [4] = Day 29, completion of ramoplanin therapy
# [5] = Day 36, 7 days after completion of ramoplanin therapy
smiles,measurement,setting,value
CCC[C@@H]1C[C@@H](C(=O)N[C@@H]([C@H]2O[C@H](SC)[C@H](O)[C@@H](O)[C@H]2O)[C@H](C)Cl)N(C)C1 [clindamycin],"stool DGGE patterns, mean similarity indices in comparison to pre-treatment patterns",[1],17%
OC(Cn1cncn1)(Cn1cncn1)c1ccc(F)cc1F [fluconazole],minimum-inhibitory concentration,Candida glabrata A239,2 µg/mL
CN[C@H](CC(C)C)C(=O)N[C@H]1C(=O)N[C@@H](CC(N)=O)C(=O)N[C@H]2C(=O)N[C@H]3C(=O)N[C@H](C(=O)N[C@H](C(=O)O)c4cc(O)cc(O)c4-c4cc3ccc4O)[C@H](O)c3ccc(c(Cl)c3)Oc3cc2cc(c3O[C@@H]2O[C@H](CO)[C@@H](O)[C@H](O)[C@H]2O[C@H]2C[C@](C)(N)[C@H](O)[C@H](C)O2)Oc2ccc(cc2Cl)[C@H]1O [vancomycin],Enterococci: VRE,[2]; [3],9.7 log 10 cfu/g faeces
same,Enterococci: VRE,[2]; [4],9.4 log 10 cfu/g faeces
same,% Mice with VRE,"[2]; Day 29, completion of ramoplanin therapy (15 mg/kg/day in drinking water, with 25 mg/kg/day vancomycin)",100%
same,% Mice with VRE,[2]; [5],100%
same,Enterococci: VRE,[2]; [5],9.3 log 10 cfu/g faeces
same,Enterococci: Total Enterococci,Total Enterococci; [3],9.6 log 10 cfu/g faeces
same,Enterococci: Total Enterococci,Total Enterococci; [4],9.3 log 10 cfu/g faeces
same,Enterococci: Total Enterococci,Total Enterococci; [5],9.6 log 10 cfu/g faeces
